According to patent publication US20240400553A1, “AMINE BASED MATRIPTASE 2 INHIBITORS AND USES THEREOF” (Disc Medicine, Inc., priority 2023, published 2024):

Target: T1, Human Recombinant Matriptase 2 (Homo sapiens, UniProt Q8IU80)
T1 construct: made in house
T1 sequence (Q8IU80 1-811): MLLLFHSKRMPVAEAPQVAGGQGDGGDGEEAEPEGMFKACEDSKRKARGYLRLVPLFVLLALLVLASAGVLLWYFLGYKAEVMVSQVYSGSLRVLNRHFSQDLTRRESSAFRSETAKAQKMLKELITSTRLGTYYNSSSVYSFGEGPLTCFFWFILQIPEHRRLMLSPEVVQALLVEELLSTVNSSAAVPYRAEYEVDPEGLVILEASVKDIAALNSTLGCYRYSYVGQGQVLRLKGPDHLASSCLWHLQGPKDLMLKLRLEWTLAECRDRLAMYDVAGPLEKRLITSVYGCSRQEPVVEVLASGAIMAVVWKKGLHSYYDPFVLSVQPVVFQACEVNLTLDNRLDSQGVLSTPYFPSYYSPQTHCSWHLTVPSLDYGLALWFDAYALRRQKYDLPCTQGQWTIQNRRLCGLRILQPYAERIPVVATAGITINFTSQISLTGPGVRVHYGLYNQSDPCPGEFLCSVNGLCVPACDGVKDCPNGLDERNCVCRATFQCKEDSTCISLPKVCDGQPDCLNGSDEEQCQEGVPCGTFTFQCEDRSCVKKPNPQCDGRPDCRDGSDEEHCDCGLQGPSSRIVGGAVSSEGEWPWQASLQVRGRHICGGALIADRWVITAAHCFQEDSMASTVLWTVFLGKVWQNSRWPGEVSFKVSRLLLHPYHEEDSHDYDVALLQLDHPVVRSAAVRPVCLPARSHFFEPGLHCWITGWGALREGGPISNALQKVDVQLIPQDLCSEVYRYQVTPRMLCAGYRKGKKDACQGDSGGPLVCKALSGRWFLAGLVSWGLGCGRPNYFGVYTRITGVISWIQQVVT
Assay: Matriptase 2 inhibition, fluorescence based assay (Method I)
Type: biochemical
Settings: Table A; Ki of Matriptase-2 given as class symbols; read-out: Mat-2 Ki
In short: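 Fluorogenic readout (Ex 360/Em 480 nm) taken 60 min after adding 62 μM Boc-Gln-Ala-Arg-AMC, following 30-min enzyme–compound preincubation at 25 °C. Conditions: 3.5 nM in-house enzyme, pH 7.5 Tris/NaCl/gelatin buffer, 1% DMSO; percent inhibition versus concentration fitted by variable-slope sigmoidal regression.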

SMILES	Ki [µM]
COCCN1CCC(CS(=O)(=O)Nc2cc(Cn3c(C(=O)OCC4CCN(C)CC4)cc4ccc(CN)nc43)c3ccccc3c2)CC1 [Compound 253]	0.5 to 3
Cc1nc(CS(=O)(=O)Nc2cc(Cn3c(C(=O)O)cc4ccc(CN)nc43)c3ccccc3c2)cs1 [Compound 256, 6-(aminomethyl)-1-({3-[(2-methyl-1,3-thiazol-4-yl)methanesulfon-amido]naphthalen-1-yl}-methyl)-1H-pyrrolo[2,3-b]pyridine-2-carboxylic acid]	0.1 to 0.5
COC(=O)NCCNC(=O)c1cc2ccc(CN)nc2n1Cc1cc(NS(=O)(=O)CC[C@@H]2CCCN2)cc2ccccc12 [Compound 258, methyl N-(2-{[6-(amino-methyl)-1-[(3-{2-[(2S)-pyrrolidin-2-yl]ethane-sulfonamido}naphthalen-1-yl)methyl]-1H-pyr-rolo[2,3-b]pyridin-2-yl]-formamido}ethyl)car-bamate]	0.1 to 0.5
NCc1ccc2cc(C(=O)O)n(Cc3cc(NS(=O)(=O)[C@H]4CCNC4)cc4ccccc34)c2n1 [Compound 259, 6-(aminomethyl)-1-({3-[(3S)-pyrrolidine-3-sul-fonamido]naphthalen-1-yl}methyl)-1H-pyrrolo-[2,3-b]pyridine-2-car-boxylic acid]	0.1 to 0.5
NCc1ccc2cc(C(=O)OCCO)n(Cc3cc(NS(=O)(=O)CC[C@@H]4CCCN4)cc4ccccc34)c2n1 [Compound 260, 2-hydroxyethyl 6-(aminomethyl)-1-[(3-{2-[(2S)-pyrrolidin-2-yl]-ethanesulfonamido}naph-thalen-1-yl)methyl]-1H-pyrrolo[2,3-b]pyridine-2-carboxylate]	0.1 to 0.5
NCc1ccc2cc(C(=O)O)n(Cc3cc(NS(=O)(=O)CCCn4cnnn4)cc4ccccc34)c2n1 [Compound 264, 6-(aminomethyl)-1-({3-[3-(1H-1,2,3,4-tetrazol-1-yl)propanesulfonamido]-naphthalen-1-yl}methyl)-1H-pyrrolo[2,3-b]pyr-idine-2-carboxylic acid]	0.1 to 0.5
CCN(CC)CCS(=O)(=O)Nc1cc(Cn2c(C(=O)O)cc3ccc(CN)nc32)c2ccccc2c1 [Compound 265, 6-(aminomethyl)-1-({3-[2-(diethylamino)ethane-sulfonamido]naphthalen-1-yl}methyl)-1H-pyr-rolo[2,3-b]pyridine-2-carboxylic acid]	0.1 to 0.5
CC(C)(C)S(=O)(=O)N1CCC(CS(=O)(=O)Nc2cc(Cn3c(C(=O)O)cc4ccc(CN)nc43)c3ccccc3c2)CC1 [Compound 267, 6-(aminomethyl)-1-[(3-{[1-(2-methylpropane-2-sulfonyl)piperidin-4-yl]-methanesulfonamido}-naphthalen-1-yl)methyl]-1H-pyrrolo[2,3-b]pyr-idine-2-carboxylic acid]	0.1 to 0.5
CC(C)(C)OC(=O)N1CC[C@H](S(=O)(=O)Nc2cc(Cn3c(C(=O)O)cc4ccc(CN)nc43)c3ccccc3c2)C1 [Compound 268]	0.1 to 0.5
CCOC(=O)c1cc2ccc(CN)nc2n1Cc1cc(NS(=O)(=O)CC[C@@H]2CCCN2)cc2ccccc12 [Compound 269, ethyl 6-(aminomethyl)-1-[(3-{2-[(2S)-pyrrolidin-2-yl]ethanesulfonamido}-naphthalen-1-yl)methyl]-1H-pyrrolo[2,3-b]pyr-idine-2-carboxylate]	0.5 to 3
CC(C)OC(=O)c1cc2ccc(CN)nc2n1Cc1cc(NS(=O)(=O)CC[C@@H]2CCCN2)cc2ccccc12 [Compound 270, propan-2-yl 6-(amino-methyl)-1-[(3-{2-[(2S)-pyrrolidin-2-yl]ethane-sulfonamido}naphthalen-1-yl)methyl]-1H-pyrrolo-[2,3-b]pyridine-2-car-boxylate]	0.5 to 3
CN(C)CCOC(=O)c1cc2ccc(CN)nc2n1Cc1cc(NS(=O)(=O)CC2CCNCC2)cc2ccccc12 [Compound 271, 2-(dimethylamino)ethyl 6-(aminomethyl)-1-({3-[(piperidin-4-yl)meth-anesulfonamido]naph-thalen-1-yl}methyl)-1H-pyrrolo[2,3-b]pyridine-2-carboxylate]	0.5 to 3
C[C@@H]1OCCC1S(=O)(=O)Nc1cc(Cn2c(C(=O)O)cc3ccc(CN)nc32)c2ccccc2c1 (stereo partly drawn) [Compound 272, 6-(aminomethyl)-1-({3-[(2S)-2-methyloxolane-3-sulfonamido]naph-thalen-1-yl}methyl)-1H-pyrrolo[2,3-b]pyridine-2-carboxylic acid]	0.5 to 3
CC(C)(C)OC(=O)N1CCC(CCS(=O)(=O)Nc2cc(Cn3c(C(=O)O)cc4ccc(CN)nc43)c3ccccc3c2)CC1 [Compound 274, 6-(aminomethyl)-1-{[3-(2-{1-[(tert-butoxy)car-bonyl]piperidin-4-yl}-ethanesulfonamido)naph-thalen-1-yl]methyl}-1H-pyrrolo[2,3-b]pyridine-2-carboxylic acid]	0.5 to 3
CC(=O)OC(C)OC(=O)c1cc2ccc(CN)nc2n1Cc1cc(NS(=O)(=O)CC[C@@H]2CCCN2)cc2ccccc12 (stereo partly drawn) [Compound 275, 1-[6-(aminomethyl)-1-[(3-{2-[(2S)-pyrrolidin-2-yl]ethanesulfonamido}naphthalen-1-yl)methyl]-1H-pyrrolo[2,3-b]pyr-idine-2-carbonyloxy]-ethyl acetate]	0.5 to 3
NCc1ccc2cc(C(=O)O)n(Cc3cc(NS(=O)(=O)[C@@H]4CCOC4)cc4ccccc34)c2n1 [Compound 276]	0.5 to 3
CNCCOC(=O)c1cc2ccc(CN)nc2n1Cc1cc(NS(=O)(=O)CC2CCNCC2)cc2ccccc12 [Compound 278, 2-(methylamino)ethyl 6-(aminomethyl)-1-({3-[(piperidin-4-yl)methane-sulfonamido]naphthalen-1-yl}methyl)-1H-pyr-rolo[2,3-b]pyridine-2-carboxylate]	0.5 to 3
NCc1ccc2cc(C(=O)O)n(Cc3cc(NS(=O)(=O)C4CCCCC4)cc4ccccc34)c2n1 [Compound 279, 6-(aminomethyl)-1-[(3-cyclohexanesulfon-amidonaphthalen-1-yl)-methyl]-1H-pyrrolo[2,3-b]pyridine-2-carboxylic acid]	0.5 to 3
NCc1ccc2cc(C(=O)O)n(Cc3cc(NS(=O)(=O)[C@H]4CCOC4)cc4ccccc34)c2n1 [Compound 280, 6-(aminomethyl)-1-({3-[(3S)-oxolane-3-sulfon-amido]naphthalen-1-yl}-methyl)-1H-pyrrolo[2,3-b]pyridine-2-carboxylic acid]	0.5 to 3
CN1CCC(COC(=O)c2cc3ccc(CN)nc3n2Cc2cc(NS(=O)(=O)CC[C@H]3CCCN3)cc3ccccc23)CC1 [Compound 281, (1-methylpiperidin-4-yl)methyl 6-(aminometh-yl)-1-[(3-{2-[(2R)-pyr-rolidin-2-yl]ethanesul-fonamido}naphthalen-1-yl)methyl]-1H-pyrrolo-[2,3-b]pyridine-2-car-boxylate]	0.5 to 3
CNCCOC(=O)c1cc2ccc(CN)nc2n1Cc1cc(NS(=O)(=O)CC[C@@H]2CCCN2)cc2ccccc12 [Compound 283, 2-(methylamino)ethyl 6-(aminomethyl)-1-[(3-{2-[(2S)-pyrrolidin-2-yl]-ethanesulfonamido}-naphthalen-1-yl)methyl]-1H-pyrrolo[2,3-b]pyr-idine-2-carboxylate]	0.5 to 3
CN(C)CCOC(=O)c1cc2ccc(CN)nc2n1Cc1cc(NS(=O)(=O)CC[C@@H]2CCCN2)cc2ccccc12 [Compound 284, 2-(dimethylamino)ethyl 6-(aminomethyl)-1-[(3-{2-[(2S)-pyrrolidin-2-yl]ethanesulfonamido}-naphthalen-1-yl)methyl]-1H-pyrrolo[2,3-b]pyr-idine-2-carboxylate]	0.5 to 3
NCc1ccc2cc(C(=O)O)n(Cc3cc(NS(=O)(=O)Cc4ccccc4)cc4c3CCCC4)c2n1 [Compound 285, 6-(aminomethyl)-1-((3-((phenylmethyl)sulfonamido)-5,6,7,8-tetrahydronaphthalen-1-yl)methyl)-1H-pyrrolo[2,3-b]pyridine-2-carboxylic acid]	0.1 to 0.5
CN1CCC(COC(=O)c2cc3ccc(CN)nc3n2Cc2cc(NS(=O)(=O)Cc3ccccc3)cc3c2CCCC3)CC1 [Compound 286, (1-methylpiperidin-4-yl)methyl 6-(aminomethyl)-1-((3-((phenylmethyl)sulfonamido)-5,6,7,8-tetrahydronaphthalen-1-yl)methyl)-1H-pyrrolo[2,3-b]pyridine-2-carboxylate]	≤ 0.1
NCc1ccc2cc(C(=O)O)n(Cc3cc(NS(=O)(=O)Cc4ccsc4)cc4c3CCCC4)c2n1 [Compound 287, 6-(aminomethyl)-1-({3-[(thiophen-3-yl)methane-sulfonamido]-5,6,7,8-tetrahydronaphthalen-1-yl}methyl)-1H-pyrrolo-[2,3-b]pyridine-2-carbox-ylic acid]	0.1 to 0.5
